Assay [1] addresses T1, A3 adenosine receptors (Homo sapiens, UniProt P0DMS8).
T1 sequence (P0DMS8 1-318): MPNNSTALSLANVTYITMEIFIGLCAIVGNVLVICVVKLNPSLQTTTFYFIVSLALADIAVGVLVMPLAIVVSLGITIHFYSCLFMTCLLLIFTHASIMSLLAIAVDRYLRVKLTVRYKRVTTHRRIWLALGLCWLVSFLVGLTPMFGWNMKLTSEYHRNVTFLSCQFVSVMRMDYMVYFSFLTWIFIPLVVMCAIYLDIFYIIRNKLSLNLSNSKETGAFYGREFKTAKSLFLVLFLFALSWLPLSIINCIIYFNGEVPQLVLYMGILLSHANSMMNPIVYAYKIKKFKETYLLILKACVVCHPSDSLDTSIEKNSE
In words: [3H]MRE 3008F20 saturation binding to colonic membranes. Set-up: Colon cancer tissues and related mucosa were homogenized in PBS buffer with a Polytron (Kinematica) and centrifuged; from tissue; host or cells: surgical specimens of human colorectal carcinoma, adenoma and adjacent/remote normal colonic mucosa. Here is the method:
PREPARATION OF COLONIC MEMBRANE SUSPENSIONS. Colon cancer tissues and related mucosa were homogenized in PBS buffer with a Polytron (Kinematica) and centrifuged for 15 min at 48,000 g. The membrane pellet was resuspended in 50 mM Tris/HCl buffer pH 7.4 (50 mM Tris/HCl, 10 mM MgCl2, 1 mM EDTA) and incubated with 3 IU/ml of adenosine deaminase for 30 min at 37° C. This suspension was used for binding experiments.
(§1) Non-specific binding was determined in the presence of 1 μM MRE 3008F20. Bound and free radioactivity were separated, after an incubation time of 120 min at 4° C., by filtering the assay mixture using a Brandel cell harvester. The protein concentration was determined according to a Bio Rad method (26). Binding to A1 and A2A adenosine receptors was performed using [^3H]1,3-dipropyl-8-cyclopentyl-xanthine ([^3H]DPCPX) and [^3H]4-(2-[7-amino-2-(2-furyl)-[1,2,4]triazolo-[2,32][1,3,6]triazinyl-amino]ethyl)-phenol ([^3H]ZM 241385), respectively, as previously described (16, 24).
(§2) Data and statistical analysis. A weighted nonlinear least squares curve fitting program, LIGAND was used for computer analysis of the data from saturation experiments (28). Significant differences between control and patients with colorectal cancer were assessed using Student's t-test or analysis of variance (ANOVA) and the Dunnett's test when required. P<0.05 was considered significant. All data are reported as means±SEM.

In assay [2] the target is T1, A3 adenosine receptors. In words: [3H]MRE 3008F20 saturation binding to membranes of peripheral blood lymphocytes and neutrophils. Set-up: endogenous in cells; host or cells: neutrophils and lymphocytes from peripheral venous blood of colorectal cancer patients and healthy volunteers. As to conditions: N=3. As to the method: as §1, §2

`CCCn1cc2c(nc(NC(=O)Nc3ccc(OC)cc3)n3nc(-c4ccco4)nc23)n1` [[^3H]MRE 3008F20, 5-N-(4-methoxyphenyl-carbamoyl)amino-8-propyl-2(2furyl)-pyrazolo-[4,3 e]-1,2,4-triazolo [1,5-c]pyrimidine]: the Bmax in assay [1] (adjacent normal (AN) mucosa, 2 cm from tumor) was 295±20 fmol/mg of protein; in assay [1] (colonic membranes from 14 patients operated for non-neoplastic large bowel disease) it was 163±10 fmol/mg of protein; in assay [1] (large adenomas with high-grade dysplasia, N=4) it was 302±15 fmol/mg of protein; in assay [1] (remote normal (RN) mucosa, 10 cm from tumor) it was 196±10 fmol/mg of protein; in assay [1] (small adenomas with low-grade dysplasia, N=4), 155±24 fmol/mg of protein; in assay [1] (tumor tissues, 73 primary colorectal carcinomas, mean±SEM), 584±35 fmol/mg of protein. Also, the Bmax is reported as 106±15 fmol/mg of protein in assay [2] (lymphocytes of patients with small adenomas) and 547±77 fmol/mg of protein in assay [2] (neutrophils of patients with small adenomas).

(Values after patent publication US20070037179A1, “Methods of diagnosing and prognosticating solid tumors and melanoma” (priority 2004, published 2007).)
